{
  "source": "patent US9499550B2",
  "about": "(BRISTOL-MYERS SQUIBB COMPANY, priority 2012, dated 2016)",
  "key": {"[1]": {"system": "HCV genotype 1a (H77 strain) replicon in HUH-7 cells", "assay": "HCV replicon luciferase reporter assay, genotype 1a", "type": "cell-based", "conditions": "Hepatitis C virus, Huh-7, 72 h, HCV genotype 1a replicon luciferase, 3 days incubation, read-out: LE_1a (EC50, range)", "summary_of_the_method": "(§1)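 Replicon inhibition for both genotypes was measured as Renilla luciferase signal (EnduRen, 7.5 μM final, 2 h) after 3-day, 37° C exposure of replicon-bearing HUH-7 cells in 4% FCS DMEM, 0.5% DMSO. The 1b construct carries S1179I; the 1a H77 construct carries P1496L and S2204I. Twenty-point, 3-fold dilutions were fitted four-parametrically for EC50, and CC50 was taken from multiplexed Cell Titer-Blue.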"}, "[2]": {"system": "HCV genotype 1b (Con1) replicon in HUH-7 cells", "assay": "HCV replicon luciferase reporter assay, genotype 1b", "type": "cell-based", "conditions": "Hepatitis C virus, Huh-7, 72 h, HCV genotype 1b replicon luciferase, 3 days incubation, read-out: LE_1b (EC50, range)", "summary_of_the_method": "as §1"}},
  "data": [
    {"smiles": "C[C@@H]1CC/C=C\\[C@@H]2C[C@@]2(C(=O)NS(=O)(=O)C2CC2)NC(=O)[C@@H]2C[C@@H](Oc3nc4ccccc4c4ccccc34)CN2C(=O)[C@@H](NC(=O)OC(C)(C)C)[C@H](C)C1", "note": "[Compound 5183, tert-butyl ((2R,6S,7R,9R,13aS,14aR,16aS,Z)-14a-((cyclopropylsulfonyl)carbamoyl)-7,9-dimethyl-5,16-dioxo-2-(phenanthridin-6-yloxy)-1,2,3,5,6,7,8,9,10,11,13a,14,14a,15,16,16a-hexadecahydrocyclopropa[e]pyrrolo[1,2-a][1,4]diazacyclopentadecin-6-yl)carbamate]", "values": [
      {"measurement": "EC50", "setting": "[1]", "result": "< 5.46", "unit": "nM"},
      {"measurement": "EC50", "setting": "[2]", "result": "< 5.46", "unit": "nM"}
    ]},
    {"smiles": "C[C@@H]1CC/C=C\\[C@@H]2C[C@@]2(C(=O)NS(=O)(=O)C2CC2)NC(=O)C2C[C@@H](Oc3nc4ccccc4c4ccccc34)CN2C(=O)[C@@H](NC(=O)OC(C)(C)C(F)(F)F)[C@H](C)C1", "note": "(stereo partly drawn) [Compound 5185, 1,1,1-trifluoro-2-methylpropan-2-yl((2R,6S,7R,9R,13aS,14aR,16aS,Z)-14a-((cyclopropylsulfonyl)carbamoyl)-7,9-dimethyl-5,16-dioxo-2-(phenanthridin-6-yloxy)-1,2,3,5,6,7,8,9,10,11,13a,14,14a,15,16,16a-hexadecahydrocyclopropa[e]pyrrolo[1,2-a][1,4]diazacyclopentadecin-6-yl)carbamate]", "values": [
      {"measurement": "EC50", "setting": "[1]", "result": "< 5.46", "unit": "nM"},
      {"measurement": "EC50", "setting": "[2]", "result": "< 5.46", "unit": "nM"}
    ]},
    {"smiles": "COc1ccc2c(O[C@@H]3C[C@H]4C(=O)N[C@]5(C(=O)NS(=O)(=O)C6CC6)C[C@H]5/C=C\\CC[C@H](C)C[C@@H](C)[C@H](NC(=O)OC(C)(C)C)C(=O)N4C3)nc(-c3ccccc3)cc2c1", "note": "[Compound 5186, tert-butyl ((2R,6S,7R,9S,13aS,14aR,16aS,Z)-14a-((cyclopropylsulfonyl)carbamoyl)-2-((6-methoxy-3-phenylisoquinolin-1-yl)oxy)-7,9-dimethyl-5,16-dioxo-1,2,3,5,6,7,8,9,10,11,13a,14,14a,15,16,16a-hexadecahydrocyclopropa[e]pyrrolo[1,2-a][1,4]diazacyclopentadecin-6-yl)carbamate]", "values": [
      {"measurement": "EC50", "setting": "[1]", "result": "< 5.46", "unit": "nM"},
      {"measurement": "EC50", "setting": "[2]", "result": "< 5.46", "unit": "nM"}
    ]},
    {"smiles": "COc1ccc2c(O[C@@H]3C[C@H]4C(=O)N[C@]5(C(=O)NS(=O)(=O)C6CC6)C[C@H]5/C=C\\CC[C@@H](C)C[C@@H](C)[C@H](NC(=O)O[C@@H]5C[C@@H]6C[C@@H]6C5)C(=O)N4C3)nc(-c3ccccc3)cc2c1", "note": "[Compound 5188, (1R,3r,5S)-bicyclo[3.1.0]hexan-3-yl((2R,6S,7R,9R,13aS,14aR,16aS,Z)-14a-((cyclopropylsulfonyl)carbamoyl)-2-((6-methoxy-3-phenylisoquinolin-1-yl)oxy)-7,9-dimethyl-5,16-dioxo-1,2,3,5,6,7,8,9,10,11,13a,14,14a,15,16,16a-hexadecahydrocyclopropa[e]pyrrolo[1,2-a][1,4]diazacyclopentadecin-6-yl)carbamate]", "values": [
      {"measurement": "EC50", "setting": "[1]", "result": "< 5.46", "unit": "nM"},
      {"measurement": "EC50", "setting": "[2]", "result": "< 5.46", "unit": "nM"}
    ]},
    {"smiles": "COc1ccc2c(O[C@@H]3C[C@H]4C(=O)N[C@]5(C(=O)NS(=O)(=O)C6CC6)C[C@H]5/C=C\\CC[C@H](C)C[C@@H](C)[C@H](NC(=O)O[C@@H]5C[C@@H]6C[C@@H]6C5)C(=O)N4C3)nc(-c3ccccc3)cc2c1", "note": "[Compound 5189, (1R,3r,5S)-bicyclo[3.1.0]hexan-3-yl((2R,6S,7R,9S,13aS,14aR,16aS,Z)-14a-((cyclopropylsulfonyl)carbamoyl)-2-((6-methoxy-3-phenylisoquinolin-1-yl)oxy)-7,9-dimethyl-5,16-dioxo-1,2,3,5,6,7,8,9,10,11,13a,14,14a,15,16,16a-hexadecahydrocyclopropa[e]pyrrolo[1,2-a][1,4]diazacyclopentadecin-6-yl)carbamate]", "values": [
      {"measurement": "EC50", "setting": "[1]", "result": "< 5.46", "unit": "nM"},
      {"measurement": "EC50", "setting": "[2]", "result": "< 5.46", "unit": "nM"}
    ]},
    {"smiles": "COc1ccc2c(O[C@@H]3C[C@H]4C(=O)N[C@]5(C(=O)NS(=O)(=O)C6CC6)C[C@H]5/C=C\\CC[C@H](C)C[C@@H](C)[C@H](NC(=O)OC(C)(C)C(F)(F)F)C(=O)N4C3)nc(-c3ccccc3)cc2c1", "note": "[Compound 5191, 1,1,1-trifluoro-2-methylpropan-2-yl((2R,6S,7R,9S,13aS,14aR,16aS,Z)-14a-((cyclopropylsulfonyl)carbamoyl)-2-((6-methoxy-3-phenylisoquinolin-1-yl)oxy)-7,9-dimethyl-5,16-dioxo-1,2,3,5,6,7,8,9,10,11,13a,14,14a,15,16,16a-hexadecahydrocyclopropa[e]pyrrolo[1,2-a][1,4]diazacyclopentadecin-6-yl)carbamate]", "values": [
      {"measurement": "EC50", "setting": "[1]", "result": "< 5.46", "unit": "nM"},
      {"measurement": "EC50", "setting": "[2]", "result": "< 5.46", "unit": "nM"}
    ]},
    {"smiles": "COc1ccc2c(O[C@@H]3C[C@H]4C(=O)N[C@]5(C(=O)NS(=O)(=O)C6CC6)C[C@H]5/C=C\\CC[C@H](C)C[C@@H](C)[C@H](NC(=O)OC(C)(C)C)C(=O)N4C3)nc(-c3ccc(N4CCOCC4)cc3)cc2c1", "note": "[Compound 5192, tert-butyl ((2R,6S,7R,9S,13aS,14aR,16aS,Z)-14a-((cyclopropylsulfonyl)carbamoyl)-2-((6-methoxy-3-(4-morpholinophenyl)isoquinolin-1-yl)oxy)-7,9-dimethyl-5,16-dioxo-1,2,3,5,6,7,8,9,10,11,13a,14,14a,15,16,16a-hexadecahydrocyclopropa[e]pyrrolo[1,2-a][1,4]diazacyclopentadecin-6-yl)carbamate]", "values": [
      {"measurement": "EC50", "setting": "[1]", "result": "< 5.46", "unit": "nM"},
      {"measurement": "EC50", "setting": "[2]", "result": "< 5.46", "unit": "nM"}
    ]},
    {"smiles": "COc1ccc2c(O[C@@H]3C[C@H]4C(=O)N[C@]5(C(=O)NS(=O)(=O)C6CC6)C[C@H]5/C=C\\CC[C@@H](C)C[C@@H](C)[C@H](NC(=O)OC(C)(C)C)C(=O)N4C3)nc(-c3ccc(N4CCOCC4)cc3)cc2c1", "note": "[Compound 5193, tert-butyl ((2R,6S,7R,9R,13aS,14aR,16aS,Z)-14a-((cyclopropylsulfonyl)carbamoyl)-2-((6-methoxy-3-(4-morpholinophenyl)isoquinolin-1-yl)oxy)-7,9-dimethyl-5,16-dioxo-1,2,3,5,6,7,8,9,10,11,13a,14,14a,15,16,16a-hexadecahydrocyclopropa[e]pyrrolo[1,2-a][1,4]diazacyclopentadecin-6-yl)carbamate]", "values": [
      {"measurement": "EC50", "setting": "[1]", "result": "< 5.46", "unit": "nM"},
      {"measurement": "EC50", "setting": "[2]", "result": "< 5.46", "unit": "nM"}
    ]},
    {"smiles": "COc1ccc2c(O[C@@H]3C[C@H]4C(=O)N[C@]5(C(=O)NS(=O)(=O)C6CC6)C[C@H]5/C=C\\CC[C@H](C)C[C@@H](C)[C@H](NC(=O)OC5C[C@@H]6C[C@@H]6C5)C(=O)N4C3)nc(-c3ccc(N4CCOCC4)cc3)cc2c1", "note": "(stereo partly drawn) [Compound 5194, (1R,3r,5S)-bicyclo[3.1.0]hexan-3-yl((2R,6S,7R,9S,13aS,14aR,16aS,Z)-14a-((cyclopropylsulfonyl)carbamoyl)-2-((6-methoxy-3-(4-morpholinophenyl)isoquinolin-1-yl)oxy)-7,9-dimethyl-5,16-dioxo-1,2,3,5,6,7,8,9,10,11,13a,14,14a,15,16,16a-hexadecahydrocyclopropa[e]pyrrolo[1,2-a][1,4]diazacyclopentadecin-6-yl)carbamate]", "values": [
      {"measurement": "EC50", "setting": "[1]", "result": "< 5.46", "unit": "nM"},
      {"measurement": "EC50", "setting": "[2]", "result": "< 5.46", "unit": "nM"}
    ]},
    {"smiles": "COc1ccc2c(O[C@@H]3C[C@H]4C(=O)N[C@]5(C(=O)NS(=O)(=O)C6CC6)C[C@H]5/C=C\\CC[C@@H](C)C[C@@H](C)[C@H](NC(=O)OC5C[C@@H]6C[C@@H]6C5)C(=O)N4C3)nc(-c3ccc(N4CCOCC4)cc3)cc2c1", "note": "(stereo partly drawn) [Compound 5195, (1R,3r,5S)-bicyclo[3.1.0]hexan-3-yl((2R,6S,7R,9R,13aS,14aR,16aS,Z)-14a-((cyclopropylsulfonyl)carbamoyl)-2-((6-methoxy-3-(4-morpholinophenyl)isoquinolin-1-yl)oxy)-7,9-dimethyl-5,16-dioxo-1,2,3,5,6,7,8,9,10,11,13a,14,14a,15,16,16a-hexadecahydrocyclopropa[e]pyrrolo[1,2-a][1,4]diazacyclopentadecin-6-yl)carbamate]", "values": [
      {"measurement": "EC50", "setting": "[1]", "result": "< 5.46", "unit": "nM"},
      {"measurement": "EC50", "setting": "[2]", "result": "< 5.46", "unit": "nM"}
    ]},
    {"smiles": "COc1ccc2c(O[C@@H]3C[C@H]4C(=O)N[C@]5(C(=O)NS(=O)(=O)C6CC6)C[C@H]5/C=C\\CC[C@H](C)C[C@@H](C)[C@H](NC(=O)OC(C)(C)C(F)(F)F)C(=O)N4C3)nc(-c3ccc(N4CCOCC4)cc3)cc2c1", "note": "[Compound 5196, 1,1,1-trifluoro-2-methylpropan-2-yl((2R,6S,7R,9S,13aS,14aR,16aS,Z)-14a-((cyclopropylsulfonyl)carbamoyl)-2-((6-methoxy-3-(4-morpholinophenyl)isoquinolin-1-yl)oxy)-7,9-dimethyl-5,16-dioxo-1,2,3,5,6,7,8,9,10,11,13a,14,14a,15,16,16a-hexadecahydrocyclopropa[e]pyrrolo[1,2-a][1,4]diazacyclopentadecin-6-yl)carbamate]", "values": [
      {"measurement": "EC50", "setting": "[1]", "result": "< 5.46", "unit": "nM"},
      {"measurement": "EC50", "setting": "[2]", "result": "< 5.46", "unit": "nM"}
    ]},
    {"smiles": "COc1ccc2c(O[C@@H]3C[C@H]4C(=O)N[C@]5(C(=O)NS(=O)(=O)C6CC6)C[C@H]5/C=C\\CC[C@@H](C)C[C@@H](C)[C@H](NC(=O)OC(C)(C)C(F)(F)F)C(=O)N4C3)nc(-c3ccc(N4CCOCC4)cc3)cc2c1", "note": "[Compound 5197, 1,1,1-trifluoro-2-methylpropan-2-yl((2R,6S,7R,9R,13aS,14aR,16aS,Z)-14a-((cyclopropylsulfonyl)carbamoyl)-2-((6-methoxy-3-(4-morpholinophenyl)isoquinolin-1-yl)oxy)-7,9-dimethyl-5,16-dioxo-1,2,3,5,6,7,8,9,10,11,13a,14,14a,15,16,16a-hexadecahydrocyclopropa[e]pyrrolo[1,2-a][1,4]diazacyclopentadecin-6-yl)carbamate]", "values": [
      {"measurement": "EC50", "setting": "[1]", "result": "< 5.46", "unit": "nM"},
      {"measurement": "EC50", "setting": "[2]", "result": "< 5.46", "unit": "nM"}
    ]},
    {"smiles": "COc1ccc2c(O[C@@H]3C[C@H]4C(=O)N[C@]5(C(=O)NS(=O)(=O)C6(C)CC6)C[C@H]5/C=C\\CC[C@H](C)C[C@@H](C)[C@H](NC(=O)OC(C)(C)C(F)(F)F)C(=O)N4C3)nc(-c3ccc(N4CCOCC4)cc3)cc2c1", "note": "[Compound 5198, 1,1,1-trifluoro-2-methylpropan-2-yl((2R,6S,7R,9S,13aS,14aR,16aS,Z)-2-((6-methoxy-3-(4-morpholinophenyl)isoquinolin-1-yl)oxy)-7,9-dimethyl-14a-(((1-methylcyclopropyl)sulfonyl)carbamoyl)-5,16-dioxo-1,2,3,5,6,7,8,9,10,11,13a,14,14a,15,16,16a-hexadecahydrocyclopropa[e]pyrrolo[1,2-a][1,4]diazacyclopentadecin-6-yl)carbamate]", "values": [
      {"measurement": "EC50", "setting": "[1]", "result": "4.82 to 103", "unit": "nM"},
      {"measurement": "EC50", "setting": "[2]", "result": "< 5.46", "unit": "nM"}
    ]}
  ]
}
